These results are taken from patent publication US4371537A, “Sulfur-substituted phenoxypyridines having antiviral activity” (The Dow Chemical Company, priority 1981, dated 1983).

Structures are written as SMILES. Values after ≈ are worked out from the molar mass of the structure shown.

The test system of data set [1] is Rhinovirus Type 13. The experiment in a line: Inhibition of cytopathic effect in WI-38 cell culture tubes, rhinovirus type 13. It counts as cell-based. Conditions: Enterovirus, WI-38 cells, read-out: Inhibition grade, Rhinovirus Type 13; for inhibition at 25 µg/mL: 25 μg/ml. The method, then: (§1) The test compound was dissolved in an appropriate solvent (generally dimethyl sulfoxide) and incubated at 56° C. for at least 15 minutes and this solution was then used to prepare various test solutions having the desired concentration of test compound in preheated WI maintenance medium (49% Eagles, 49% medium 199, 2% fetal calf serum and antibiotics).
(§2) Triplicate cell culture tubes (WI-38 human embryonic lung cell culture tubes) were fed with 1 ml of medium containing the compound at specified concentrations and inoculated with 3-300 TCID50 (3-300 times the tissue culture infective dose 50, i.e., the dose required to infect 50% of the cell cultures tested). Simultaneous viral titrations were performed. The tissue cultures were supplemented with fresh medium when necessary (around 3-4 days) until viral titrations were completed.
(§3) The cell culture tubes were examined dialy for cytopathic effect. […] Comparisons were made at that time with the percentage of cell sheet destruction in tubes containing virus compound mixtures. Observed differences of 75% or more were graded "+", 74-50% as "±", and less than 50% as "-" inhibition.

For data set [2], the system named is Coxsackie A21 virus (Cox A21). The experiment in a line: Tissue culture testing, Coxsackie A21 virus in HeLa cells. The format is cell-based. Conditions: 48 and 72 hours, NA = not active at the standard test conditions, read-out: Cox A21: lowest concentration of the compound necessary to cause a 50 percent reduction in cytopathic effect. In a few lines:
(§4)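 Treatment preceded infection: HeLa cell monolayers took up compound in Eagle's medium containing fetal calf serum, and virus was then applied. Uninfected cultures and cultures without compound acted as references.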
In general terms: Protection from cytopathic effect is a common read-out in antiviral testing.

The test system of data set [3] is Rhinovirus Type 81. As to the kind of experiment: Inhibition of cytopathic effect in WI-38 cell culture tubes, rhinovirus type 81. The format is cell-based. To be noted: Enterovirus, WI-38 cells, read-out: Inhibition grade, Rhinovirus Type 81; for inhibition at 25 µg/mL: 25 μg/ml. The method, then:
as §1, §2, §3

The test system of data set [4] is Rhinovirus Type 68. The experiment in a line: Inhibition of cytopathic effect in WI-38 cell culture tubes, rhinovirus type 68. The format is cell-based. Conditions: Enterovirus, WI-38 cells, read-out: Inhibition grade, Rhinovirus Type 68; for inhibition at 25 µg/mL: 25 μg/ml. The method, then: as §1, §2, §3
Data set [5] deals with Rhinovirus Type 4. As to the kind of experiment: Inhibition of cytopathic effect in WI-38 cell culture tubes, rhinovirus type 4. The format is cell-based. Conditions: Enterovirus, WI-38 cells, read-out: Inhibition grade, Rhinovirus Type 4; for inhibition at 25 µg/mL: 25 μg/ml. The method, then:
as §1, §2, §3

In data set [6] the test system is Rhinovirus Type 56. As to the kind of experiment: Inhibition of cytopathic effect in WI-38 cell culture tubes, rhinovirus type 56. It counts as cell-based. Conditions: Enterovirus, WI-38 cells, read-out: Inhibition grade, Rhinovirus Type 56; for inhibition at 25 µg/mL: 25 μg/ml. Here is the method: as §1, §2, §3
Data set [7] has as its system Rhinovirus Type 75. As to the kind of experiment: Inhibition of cytopathic effect in WI-38 cell culture tubes, rhinovirus type 75. The format is cell-based. To be noted: Enterovirus, WI-38 cells, read-out: Inhibition grade, Rhinovirus Type 75; for inhibition at 25 µg/mL: 25 μg/ml. The method, then:
as §1, §2, §3

Data set [8] is described as follows: Cytotoxicity in tissue culture testing (HeLa monolayers). It counts as cell-based. Conditions: human; HeLa cells; observed at 48 and 72 hours post-treatment; read-out: Cytotoxicity: concentration of the compound found to be toxic to the cell. In a few lines:
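HeLa monolayers treated with compound in Eagle's medium with fetal calf serum, then challenged with rhinovirus (RV-1A, RV-2, some RV-5, RV-8, RV-64) or Coxsackie A21. Untreated and virus-free cell controls included.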

The subject of data set [9] is Rhinovirus Type 29. As to the kind of experiment: Inhibition of cytopathic effect in WI-38 cell culture tubes, rhinovirus type 29. To be noted: Enterovirus, WI-38 cells, read-out: Inhibition grade, Rhinovirus Type 29; for inhibition at 25 µg/mL: 25 μg/ml. It counts as cell-based. The method, then: as §1, §2, §3
The test system of data set [10] is Rhinovirus Type 6. The experiment in a line: Inhibition of cytopathic effect in WI-38 cell culture tubes, rhinovirus type 6. To be noted: Enterovirus, WI-38 cells, read-out: Inhibition grade, Rhinovirus Type 6; for inhibition at 25 µg/mL: 25 μg/ml. It counts as cell-based. The method, then: as §1, §2, §3
Data set [11] concerns Rhinovirus Type 60. The experiment in a line: Inhibition of cytopathic effect in WI-38 cell culture tubes, rhinovirus type 60. It counts as cell-based. To be noted: Enterovirus, WI-38 cells, read-out: Inhibition grade, Rhinovirus Type 60; for inhibition at 25 µg/mL: 25 μg/ml. The method, then:
as §1, §2, §3

Data set [12] concerns rhinovirus type 2 (RV-2). The experiment in a line: Tissue culture testing, rhinovirus type 2 in HeLa cells. The format is cell-based. Conditions: Enterovirus, 48 and 72 hours, NA = not active at the standard test conditions, read-out: RV-2: lowest concentration of the compound necessary to cause a 50 percent reduction in cytopathic effect. In a few lines: as §4
Data set [13] concerns Rhinovirus Type 74. As to the kind of experiment: Inhibition of cytopathic effect in WI-38 cell culture tubes, rhinovirus type 74. To be noted: Enterovirus, WI-38 cells, read-out: Inhibition grade, Rhinovirus Type 74; for inhibition at 25 µg/mL: 25 μg/ml. The format is cell-based. Here is the method:
as §1, §2, §3

In data set [14] the test system is Coxsackie A21 virus. As to the kind of experiment: Continuous Oral Feeding test in mice challenged IP with Coxsackie A21 virus. The format is in vivo. Conditions: po, 0.06 % in diet, 240 h. In a few lines:
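Mice (8 to 12 g) fed rodent chow containing 0.06% (weight percent) test compound from day 0, challenged IP on day 1 with 0.2 ml HeLa-grown virus at a dose giving 80 to 100% deaths within 10 days. Deaths recorded over 10 days versus controls; chi-square test, values >3.84 taken as active (95% confidence).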

For data set [15], the system named is rhinovirus type 1A (RV-1A). The experiment in a line: Tissue culture testing, rhinovirus type 1A in HeLa cells. It counts as cell-based. Conditions: Enterovirus, 48 and 72 hours, NA = not active at the standard test conditions, read-out: RV-1A: lowest concentration of the compound necessary to cause a 50 percent reduction in cytopathic effect. In short, it runs like this: as §4

In data set [16] the test system is Rhinovirus Type 19. As to the kind of experiment: Inhibition of cytopathic effect in WI-38 cell culture tubes, rhinovirus type 19. It counts as cell-based. To be noted: Enterovirus, WI-38 cells, read-out: Inhibition grade, Rhinovirus Type 19; for inhibition at 25 µg/mL: 25 μg/ml. The method, then: as §1, §2, §3
The subject of data set [17] is Rhinovirus Type 64. As to the kind of experiment: Inhibition of cytopathic effect in WI-38 cell culture tubes, rhinovirus type 64. The format is cell-based. To be noted: Enterovirus, WI-38 cells, read-out: Inhibition grade, Rhinovirus Type 64; for inhibition at 25 µg/mL: 25 μg/ml. The method, then: as §1, §2, §3
For data set [18], the system named is Rhinovirus Type 58. As to the kind of experiment: Inhibition of cytopathic effect in WI-38 cell culture tubes, rhinovirus type 58. The format is cell-based. To be noted: Enterovirus, WI-38 cells, read-out: Inhibition grade, Rhinovirus Type 58; for inhibition at 25 µg/mL: 25 μg/ml. Here is the method: as §1, §2, §3
Data set [19] has as its system Rhinovirus Type 21. The experiment in a line: Inhibition of cytopathic effect in WI-38 cell culture tubes, rhinovirus type 21. The format is cell-based. Conditions: Enterovirus, WI-38 cells, read-out: Inhibition grade, Rhinovirus Type 21; for inhibition at 25 µg/mL: 25 μg/ml. The method, then: as §1, §2, §3
In data set [20] the test system is Rhinovirus Type 8. As to the kind of experiment: Inhibition of cytopathic effect in WI-38 cell culture tubes, rhinovirus type 8. The format is cell-based. Conditions: Enterovirus, WI-38 cells, read-out: Inhibition grade, Rhinovirus Type 8; for inhibition at 25 µg/mL: 25 μg/ml. Here is the method: as §1, §2, §3

As usually defined, the inhibition is the percentage by which the read-out fell short of the control. For `CS(=O)(=O)c1ccc(Oc2ccc(C(=O)c3ccccc3)cc2)nc1` [Example 31, (4-((5-(methylsulfonyl)-2-pyridinyl)oxy)phenyl)phenylmethanone], the inhibition at 25 µg/mL in data set [1] was below 50%; in data set [3], at least 75%; in data set [4] it was at least 75%; in [5] it was at least 75%; in data set [6], at least 75%; in [7], below 50%. Moreover, the inhibition at 25 µg/mL was at least 75% in data set [9]; 50 to 74% in [10]; at least 75% in data set [11]; at least 75% in data set [13]; at least 75% in data set [16]; 50 to 74% in data set [17]. Also, the inhibition at 25 µg/mL in [18] is at least 75%; in data set [19] it was 50 to 74%; in data set [20], below 50%. For the same compound, the values for the EC50 in data set [2], in data set [12] and in [15] were 0.125 µg/mL (≈ 0.354 µM), 5 µg/mL (≈ 14.1 µM) and 12.5 µg/mL (≈ 35.4 µM), respectively. Also, in data set [8], the MCC was above 100 µg/mL. Besides, in data set [14], the “Continuous Oral Feeding X^2 (chi-square, deaths vs control)” value is given as 24.397.
As for `CCS(=O)(=O)c1ccc(Oc2ccc(Cl)cc2)nc1` [Example 42, 2-(4-chlorophenoxy)-5-(ethylsulfonyl)pyridine], the inhibition at 12.5 µg/mL in data set [1] (12.5 μg/ml) was below 50%; in data set [3] (12.5 μg/ml) it was at least 75%; in [4] (12.5 μg/ml) it was at least 75%; in data set [5] (12.5 μg/ml), at least 75%; in data set [6] (12.5 μg/ml) it was 50 to 74%; in data set [7] (12.5 μg/ml) it was 50 to 74%. The inhibition at 12.5 µg/mL in data set [9] (12.5 μg/ml), in [10] (12.5 μg/ml), in [11] (12.5 μg/ml), in [13] (12.5 μg/ml), in data set [16] (12.5 μg/ml) and in data set [17] (12.5 μg/ml) was at least 75% each time. The values for the inhibition at 12.5 µg/mL in data set [18] (12.5 μg/ml), in data set [19] (12.5 μg/ml) and in data set [20] (12.5 μg/ml) were at least 75%, 50 to 74% and below 50%, respectively. The EC50 in [2] came to 3.12 µg/mL (≈ 10.5 µM); in [12], 3.12 µg/mL (≈ 10.5 µM); in [15], 6.25 µg/mL (≈ 21 µM). In addition, the MCC in [8] was at least 50 µg/mL. In addition, the “Continuous Oral Feeding X^2 (chi-square, deaths vs control)” value in data set [14] turned out to be 17.64.
Turning to `CCS(=O)(=O)c1ccc(Oc2ccc(C(=O)c3ccccc3)cc2)nc1` [Example 43, (4-((5-(ethylsulfonyl)-2-pyridinyl)oxy)phenyl)phenylmethanone], the inhibition at 3 µg/mL in data set [1] (3.0 μg/ml) was below 50%; in [3] (3.0 μg/ml), at least 75%; in data set [4] (3.0 μg/ml), 50 to 74%; in data set [5] (3.0 μg/ml) it was below 50%; in data set [6] (3.0 μg/ml), below 50%; in data set [7] (3.0 μg/ml) it was below 50%. The inhibition at 3 µg/mL in [9] (3.0 μg/ml) was at least 75%; in data set [10] (3.0 μg/ml), below 50%; in data set [11] (3.0 μg/ml), 50 to 74%; in data set [13] (3.0 μg/ml), 50 to 74%; in [16] (3.0 μg/ml) it was below 50%; in [17] (3.0 μg/ml) it was below 50%. Further, the inhibition at 3 µg/mL in data set [18] (3.0 μg/ml), in [19] (3.0 μg/ml) and in data set [20] (3.0 μg/ml) was below 50% throughout. In addition, the EC50 in data set [2] is below 3.12 µg/mL; in data set [12], 6.25 µg/mL (≈ 17 µM); in data set [15], at most 3.12 µg/mL. Moreover, the MCC in data set [8] was 25 µg/mL. Further, the “Continuous Oral Feeding X^2 (chi-square, deaths vs control)” value in data set [14] was 20.44.
In the case of `CCS(=O)(=O)c1ccc(Oc2ccc(Cl)c(Cl)c2)nc1` [Example 47, 2-(3,4-dichlorophenoxy)-5-(ethylsulfonyl)pyridine], the inhibition at 25 µg/mL was below 50% in data set [1]; at least 75% in data set [3]; at least 75% in data set [4]; at least 75% in data set [5]; at least 75% in data set [6]; below 50% in data set [7]. Moreover, the inhibition at 25 µg/mL was at least 75% in data set [9]; 50 to 74% in data set [10]; at least 75% in [11]; at least 75% in [13]; at least 75% in [16]; at least 75% in data set [17]. Further, the results for the inhibition at 25 µg/mL in data set [18], in data set [19] and in data set [20] were at least 75%, at least 75% and below 50%, respectively. Further, the EC50 is 2.5 µg/mL (≈ 7.53 µM) in data set [2], 0.625 µg/mL (≈ 1.88 µM) in data set [12] and 0.312 µg/mL (≈ 0.941 µM) in [15]. Further, the MCC in data set [8] is above 50 µg/mL. Besides, the “Continuous Oral Feeding X^2 (chi-square, deaths vs control)” value in [14] turned out to be 1.10.
